Test results reported in patent US10792257B2, “Pharmaceutical compositions comprising safinamide” (Zambon S.P.A., priority 2016, dated 2020).

Experiments:
[1] = Organoleptic characteristics of the active ingredient as noted by the inventors; conditions: for irritation of the mucosae: unmasked active ingredient, oropharynx
Solubility in saliva = assay type: physicochemical

Compound	irritation of the mucosae [1]	irritant effect in the oral cavity ([1]; attempts to modify the pH of the pharmaceutical preparation)	solubility in saliva (Solubility in saliva)
(2 S)-2-[[4-[(3-fluorophenypmethoxy]phenyl]methyl amino]propanamide [safinamide]	pronounced tendency to irritate the mucosae of the first section of the oropharynx		
C[C@H](NCc1ccc(OCc2cccc(F)c2)cc1)C(N)=O [safinamide methanesulfonate, Safinamide methanesulfonate]	pronounced tendency to irritate the mucosae of the first section of the oropharynx	did not lead to a reduction of the irritant effect	fairly soluble in saliva
